In patent publication US20260144753A1, “MULTIVALENT IONIZABLE LIPID DELIVERY SYSTEMS” (Factor Bioscience Inc., priority 2023, published 2026):
Entries after “also recorded” stand apart in the source; their conditions may differ. Where two headings read alike, the source gives them in different places. Blank lines part the entries; values can stand above or below the compound they belong to.

Key:
[1] = test system: THP-1 human monocyte cell line; test: THP-1 monocyte transfection efficiency, GFP mRNA lipoplexes and LNPs, flow cytometry; format: cell-based; conditions: for transfection efficiency in lipoplex screen (in words): Family D lipoplexes, lipid:mRNA weight ratio of 2:1, THP-1; for in vitro transfection efficiency, LNP form (in words): LNPs
Protocol: (§1) LNPs were formulated through bulk mixing using a molar ratio of 50:38.5:10:1.5 (ionizable lipid/cholesterol/DSPC/DMG-PEG2000) and a 0.067 weight ratio of mRNA to ionizable lipid. Lipoplexes were formulated at various weight ratios of lipid:mRNA, and mRNA loading efficiency was determined via gel electrophoresis.
To evaluate transfection efficiency and cytotoxicity, THP-1 monocytes and Jurkat T cells were transfected with lipoplexes and lipid nanoparticles.
Density plots are shown of GFP+ transfected cells from doses of 2000 ng RNA per 120,000 cells for each formulation.
These 5 lipids are all in the Family D with a spermine headgroup and bis 2-hexyldecanoate tails. Lipids are listed in order of increasing carbon spacer link length. Lipoplexes were created using a lipid:mRNA weight ratio of 2:1 for each formulation.
The measured diameter of the Compound XVI lipoplexes was 359 nm. Compound XVI also functioned effectively as a solid LNP when using a molar ratio of 50:38.5:10:1.5 (ionizable lipid/cholesterol/DSPC/DMG-PEG2000) and a 0.12 weight ratio of mRNA to ionizable lipid. […] The ability to efficiently target blood cells using lipid delivery systems opens the door to a variety of applications, including potent in vivo mRNA delivery and cell reprogramming. […]

[2] = test system: THP-1 monocytes; test: Viability of THP-1 monocytes after transfection, Cell Titer Glo; format: cell-based, human
Protocol: Relative viability was determined using a Cell Titer Glo viability assay and calculating viability relative to untransfected cells.

[3] = test system: rat dermal tissue; test: Intradermal injection of lipid-complexed GFP mRNA in rats; format: in vivo; conditions: 2000 ng GFP mRNA, 48 hours
Protocol: In this Example, in vivo experiments were carried out in rats to investigate the transfection and expression efficiency of RNA complexed with the lipids of the present disclosure.
2000 ng of DLinDHS-complexed GFP mRNA was administered to rats by intradermal injection. After 48 hours, the injection site was fixed and stained (anti-rabbit GFP).

[4] = test system: HEKn cells; test: LNP transfection efficacy in HEKn cells, mean GFP fluorescence intensity; format: cell-based; conditions: increasing amounts of mRNA
Protocol: Experiments were conducted to characterize LNP transfection efficacy of Compound XXXV in HEKn cells. A performance comparison was run between control (ToRNAdo lipoplex) and test subject Compound XXXV LNP with increasing amounts of mRNA, with other variables held constant. […] Mean GFP fluorescence intensity was calculated using Operetta® Harmony software. […] An experiment was conducted to characterize lipoplex efficiency in Jurkat cells. A performance comparison was run between control (Lipofectamine 3000) and spermine bis hexyldecanoate ionizable lipid compounds with varying tether length (3-7). Lipid:mRNA weight ratios were optimized for each lipid as determined by gel electrophoresis (Compound XX (2:1), Compound XXVIII (2.5:1), Compound XIX (1:2), Compound XVI (2.5:1), Compound XXIV (1:1)). […] The bottom panels (“Neg.”) of FIG. 57 depict negative control experiments wherein no RNA was delivered.

[5] = Encapsulation efficiency of LNPs, RiboGreen assay; format: physicochemical; conditions: for average encapsulation efficiency (%): RiboGreen
Protocol: as §1, with “electrophoresis. […] Encapsulation efficiency of LNPs was measured using a RiboGreen assay.” for “electrophoresis.”

[6] = Zeta potential of nanoparticle formulation; format: physicochemical; conditions: LNPs, at a pH of 7.0
[7] = test system: Jurkat T cells; test: Jurkat T cell transfection efficiency of lipoplex formulations, flow cytometry; format: cell-based; conditions: lipoplexes, 100 ng RNA per 100,000 cells, compared to other lipids in Family D
Protocol: To evaluate transfection efficiency and cytotoxicity, THP-1 monocytes and Jurkat T cells were transfected with lipoplexes and lipid nanoparticles. […] A screen of 4 lipoplex formulations was analyzed using flow cytometry for doses of 100 ng RNA per 100,000 cells.

[8] = Dynamic light scattering, hydrodynamic diameter of the nanoparticles; format: physicochemical
Protocol: […] Lipoplexes were formulated at various weight ratios of lipid:mRNA, and mRNA loading efficiency was determined via gel electrophoresis. […] Dynamic light scattering (DLS) was used to determine hydrodynamic diameter of the nanoparticles, graphed as number particle size distribution. Polydispersity index (PDI) was also measured.

Structure (SMILES): CCCCCCCCC(CCCCCC)C(=O)OCCCCCN(CCCN)CCCCN(CCCN)CCCCCOC(=O)C(CCCCCC)CCCCCCCC (stereo not drawn) [Compound XIX]
transfection efficiency in lipoplex screen (in words) [1]: greatest transfection efficiency
toxicity, relative viability of THP-1 monocytes after transfection (in words) [2]: greatest toxicity

Structure (SMILES): CCCCC/C=C\C/C=C\CCCCCCCCN(CCCCN(CCCCCCCC/C=C\C/C=C\CCCCC)CC(O)CN)CC(O)CN (stereo not drawn) [DLinDHS, N^1,N^4-dilinoleyl-N^1,N^4-di-(2-hydroxy-3-aminopropyl)-diaminobutane]
GFP reporter expression after intradermal injection (in words) [3]: localized expression in the dermal layer

Structure (SMILES): CCCCCCCCC(CCCCCC)C(=O)OCCCCCCN(CCCCN(CCCCCCOC(=O)C(CCCCCC)CCCCCCCC)CC(O)CN)CC(O)CN (stereo not drawn) [Compound XXXV, (butane-1,4-diylbis((3-amino-2-hydroxypropyl)azanediyl))bis(hexane-6,1-diyl) bis(2-hexyldecanoate)]
LNP transfection into HEKn cells, mean GFP fluorescence intensity (in words) [4]: successful transfection into HEKn cells with diminishing returns as mRNA dosage increased

Structure (SMILES): CCCCC/C=C\C/C=C\CCCCCCCCC(CCCCCCCC/C=C\C/C=C\CCCCC)OC(=O)CCCN(C)C [DLin-MC3-DMA, reference compound]
average encapsulation efficiency (%) [5]: 61.7%
in vitro transfection efficiency, LNP form (in words) ([1]; GFP mRNA, THP-1): low transfection efficiency
toxicity, viability of THP-1 monocytes after transfection (in words) ([2]; LNPs and lipoplexes (FIG. 10)): very little toxicity

average encapsulation efficiency (%) [5]: 87.0%
half-maximal effective concentration (EC50) ([1]; lipoplexes, GFP mRNA, THP-1): 147 ng RNA per 50,000 cells
surface charge [6]: +3.6 mV
measured diameter of the lipoplexes ([8]; lipoplexes): 359 nm
diameter of LNPs ([8]; solid LNP, molar ratio 50:38.5:10:1.5 (ionizable lipid/cholesterol/DSPC/DMG-PEG2000), 0.12 weight ratio of mRNA to ionizable lipid): 170 nm
Structure (SMILES): CCCCCCCCC(CCCCCC)C(=O)OCCCCCCN(CCCN)CCCCN(CCCN)CCCCCCOC(=O)C(CCCCCC)CCCCCCCC (stereo not drawn) [Compound XVI, (butane-1,4-diylbis((3-aminopropyl)azanediyl))bis(hexane-6,1-diyl) bis(2-hexyldecanoate)]
encapsulation efficiency of LNPs (in words) [5]: near complete encapsulation efficiency; also recorded: greater encapsulation of mRNA
transfection efficiency in lipoplex screen (in words) [1]: greatest transfection efficiency
in vitro transfection efficiency, LNP form (in words) ([1]; GFP mRNA, THP-1): greater in vitro transfection efficiency than the clinically used Dlin-MC3-DMA LNPs; also recorded: greater in vitro transfection efficiency of THP-1 monocytes than commercially-available controls
in vitro transfection efficiency, lipoplex form (in words) ([1]; lipoplexes, GFP mRNA, THP-1): greatest transfection efficiency; also recorded: greater in vitro transfection efficiency of THP-1 monocytes than commercially-available controls
transfection in the Jurkat T cell line (in words) [7]: greatest transfection
toxicity, viability of THP-1 monocytes after transfection (in words) [2]: significantly greater toxicity than respective Compound XVI lipoplexes
